# Results reported in patent publication US12544395B2, “Combination compositions comprising a beta-lactamase inhibitor and uses thereof” (priority 2018, dated 2026).
# Like-named read-outs stand apart in the source and are kept apart here.
# Columns and labels:
# [1] = test system: E. coli (UNT-204-1, TEM-1 plus CTX-M-15 producing); format: in vivo, C3H/HeJ mice; settings: for Log10 Change in CFU/Sample vs. untreated controls, Day 7, Bladder / Log10 Change in CFU/Sample vs. untreated controls, Day 7, Kidneys / Log10 Change in CFU/Sample vs. untreated controls, Day 7, Urine: SC, BID, 3 days
# [2] = test system: OXA-48-expressing Enterobacteriaceae (n = 39); assay: Broth microdilution MIC, ceftibuten/Compound 2 vs IV comparators
# CTX-M-15 [3] = molecular target: T1, CTX-M-15 (Escherichia coli, UniProt Q9EXV5); assay: Beta-lactamase enzyme inhibition (IC50); format: biochemical
# T1 construct: expressed as native untagged proteins; made in house; host or cells: E. coli BL21(DE3)
# CMY-2 = molecular target: T2, CMY-2 (Klebsiella pneumoniae, UniProt Q48434); assay: Beta-lactamase enzyme inhibition (IC50); format: biochemical
# T2 construct: expressed as native untagged proteins; made in house; host or cells: E. coli BL21(DE3)
# CTX-M-15 [4] = molecular target: T1, CTX-M-15; format: biochemical
# Description: (§1) Assays (200 μl final volume) were performed in PBS in triplicate using 96-well microtiter plates. Cephalothin was used as the substrate for p99 AmpC and CTX-M-15 (50 μM for p99 AmpC; 75 μM for CTX-M-15) and reactions were initiated by addition of enzyme (0.2 nM p99 AmpC; 3 nM CTX-M-15). The decrease in the absorbance at λ260 nm was recorded continuously on a BioTek Powerwave XS2 microplate reader. […] SHV-5 reactions were initiated with 40 nM enzyme, using cefotaxime (100 μM) as the substrate. […] For KPC-2, imipenem (75 μM) was used as the substrate, and reactions initiated with 3 nM enzyme. Reaction progress was monitored by measuring the reduction in absorbance at λ300 nm in continuous fashion. […] Time courses for reaction progress were fit to the following equation, using Prism 7.04 (GraphPad Software, LaJolla, USA) to obtain kobs:
# (§2) Off-rates for Compound 2 with the various beta-lactamases were determined by jump dilution experiments, performed in triplicate. Enzyme and inhibitor were incubated at room temperature for 10 minutes. Enzyme:inhibitor complexes were then diluted 800-fold into reaction buffer (50 mM Hepes, pH 7.0, 0.1 mg/ml BSA), and 20 μL of the diluted reaction immediately added to 180 μl of 110 μM nitrocefin in a 96-well microtiter plate, and the absorbance at λ 486 nm measured continuously on a BioTek Powerwave XS2 microplate reader. The resulting progress curves were fit to a single exponential, from which koff was derived. Half-life was determined using:
# (§3) To determine Ki, plots of the inhibitor concentration versus inverse the initial velocity were fit to a linear equation, and the observed Ki corrected for substrate concentration and affinity by: […]
# KPC-2 = molecular target: T3, KPC-2 (Klebsiella pneumoniae, UniProt Q9F663); format: biochemical
# T3 construct: expressed as native untagged proteins; made in house; host or cells: E. coli BL21(DE3)
# Description: as §1, §2, §3
# SHV-5 = molecular target: T4, SHV-5 (Klebsiella pneumoniae, UniProt P0A3M1); format: biochemical
# T4 construct: expressed as native untagged proteins; made in house; host or cells: E. coli BL21(DE3)
# Description: as §1, §2, §3
# [5] = test system: four beta-lactamase expressing Enterobacteriaceae (1 KPC, 1 p99, 1 CTX-M-15, and 1 OXA-48); assay: Time-kill kinetic analyses; format: cell-based; settings: Compound 2 fixed at 4 μg/mL, 24 hours
# Description: Activity was determined against four beta-lactamase expressing Enterobacteriaceae (1 KPC, 1 p99, 1 CTX-M-15, and 1 OXA-48). […] Macrodilution tubes were incubated with shaking and bacterial amounts were quantified at 0, 2, 4, 6, 8, and 24 hours by limiting dilutions. Amoxicillin/clavulanic acid (2:1) was used as a comparator oral antibacterial.
# [6] = Single dose plasma pharmacokinetics (fasted and non-fasted); format: in vivo, Sprague-Dawley rats; settings: Sprague-Dawley, rat, iv, 5 mg/kg
# [7] = as above; format: in vivo, Beagle dogs; settings: male, Beagle, dog, iv, 5 mg/kg
# [8] = Single ascending dose pharmacokinetics, Solutol HS-15:Water (20:80); format: in vivo, Sprague-Dawley rats; settings: male, Sprague-Dawley, rat, plasma, iv, 10 mg/kg
# Description: (§4) This study included dose concentrations ranging from 2-120 mg/mL.
# [9] = as above; format: in vivo, Cynomolgus monkeys; settings: cynomolgus monkey, plasma, iv, 1 mg/kg
# Description: as §4
# [10] = Metabolic stability in liver S9; format: in vitro ADME, Sprague-Dawley rat; settings: Sprague-Dawley, liver S9; Rat; test conc. 3 μM
# [11] = Metabolic stability in intestinal S9; format: in vitro ADME, cynomolgus monkey; settings: cynomolgus, intestinal S9; Monkey; test conc. 3 μM
# [12] = Metabolic stability in intestinal S9; format: in vitro ADME, Sprague-Dawley rat; settings: Sprague-Dawley, intestinal S9; Rat; test conc. 3 μM
# [13] = Metabolic stability in plasma; format: in vitro ADME; settings: plasma; Human; test conc. 3 μM
# [14] = Metabolic stability in plasma; format: in vitro ADME; settings: cynomolgus, Monkey, test conc. 3 μM
# [15] = Metabolic stability in plasma; format: in vitro ADME, CD-1 mouse; settings: CD-1, plasma; Mouse; test conc. 3 μM
# [16] = test system: 21 beta-lactamase-producing Enterobacteriaceae strains; assay: Neutropenic mouse thigh infection model, dose ranging; format: in vivo, mice
compound,measurement,setting,value
"Nc1nc(/C(=C/CC(=O)O)C(=O)N[C@@H]2C(=O)N3C(C(=O)O)=CCS[C@H]23)cs1 [Ceftibuten, ceftibuten, reference compound]","Log10 Change in CFU/Sample vs. untreated controls, Day 7, Bladder",[1]; 3 mg/kg,−0.03 Log10 CFU/Sample
same,"Log10 Change in CFU/Sample vs. untreated controls, Day 7, Kidneys",[1]; 3 mg/kg,−0.44 Log10 CFU/Sample
same,"Log10 Change in CFU/Sample vs. untreated controls, Day 7, Urine",[1]; 3 mg/kg,−1.24 Log10 CFU/Sample
same,"Log10 Change in CFU/Sample vs. untreated controls, Day 7, Bladder",[1]; 10 mg/kg,−1.51 Log10 CFU/Sample
same,"Log10 Change in CFU/Sample vs. untreated controls, Day 7, Kidneys",[1]; 10 mg/kg,−1.55 Log10 CFU/Sample
same,"Log10 Change in CFU/Sample vs. untreated controls, Day 7, Urine",[1]; 10 mg/kg,−0.59 Log10 CFU/Sample
same,"Log10 Change in CFU/Sample vs. untreated controls, Day 7, Bladder",[1]; 30 mg/kg,−2.08 Log10 CFU/Sample
same,"Log10 Change in CFU/Sample vs. untreated controls, Day 7, Kidneys",[1]; 30 mg/kg,−1.57 Log10 CFU/Sample
same,"Log10 Change in CFU/Sample vs. untreated controls, Day 7, Urine",[1]; 30 mg/kg,−2.28 Log10 CFU/Sample
same,reduction of bacterial load in the kidneys (average),"[1]; 100 mg/kg, SC twice daily for 3 days",2.11 log10 CFU
same,"Log10 Change in CFU/Sample vs. untreated controls, Day 7, Bladder",[1]; 100 mg/kg,−2.26 Log10 CFU/Sample
same,"Log10 Change in CFU/Sample vs. untreated controls, Day 7, Kidneys",[1]; 100 mg/kg,−2.11 Log10 CFU/Sample
same,"Log10 Change in CFU/Sample vs. untreated controls, Day 7, Urine",[1]; 100 mg/kg,−2.54 Log10 CFU/Sample
same,"Log10 Change in CFU/Sample vs. untreated controls, Day 7, Bladder",[1]; 300 mg/kg,−1.83 Log10 CFU/Sample
same,"Log10 Change in CFU/Sample vs. untreated controls, Day 7, Kidneys",[1]; 300 mg/kg,−2.14 Log10 CFU/Sample
same,"Log10 Change in CFU/Sample vs. untreated controls, Day 7, Urine",[1]; 300 mg/kg,−3.37 Log10 CFU/Sample
same,MIC50,[2],16 µg/mL
same,MIC90,[2],≥ 32 µg/mL
"CCC(=O)N[C@H]1Cc2cccc(C(=O)O)c2OB1O [Compound 2, (R)-2-hydroxy-3-propionamido-3,4-dihydro-2H-benzo[e][1,2]oxaborinine-8-carboxylic acid]",IC50,CTX-M-15 [3],18 nM
same,IC50,CMY-2,14 nM
same,Ki,CTX-M-15 [4],10 nM
same,k−2,CTX-M-15 [4],4.5 ± 0.1 10^−4 s^−1
same,t1/2,CTX-M-15 [4],0.433 ± 0.01 h
same,Ki,KPC-2,110 nM
same,k−2,KPC-2,2.5 ± 0.1 10^−4 s^−1
same,t1/2,KPC-2,0.767 ± 0.0333 h
same,Ki,SHV-5,41 nM
same,k−2,SHV-5,12.7 ± 0.07 10^−4 s^−1
same,t1/2,SHV-5,6.5 ± 0.04 min
same,rescue of ceftibuten to cidality in time-kill,[5],able to rescue ceftibuten to a cidal endpoint through 24 hours
same,AUC(0-inf),[6],3710 ng·h/mL
same,Cmax,[6],7100 ng/mL
same,AUC(0-inf),[7],25500 ng·h/mL
same,Cmax,[7],22400 ng/mL
same,AUC(0-inf),[8],6700 ng·h/mL
same,Cmax,[8],23700 ng/mL
same,AUC(0-inf),[9],10000 ng·h/mL
same,Cmax,[9],26000 ng/mL
same,half-life at 3 μM,[10],> 2 h
same,half-life at 3 μM,[11],> 2 h
same,half-life at 3 μM,[12],> 2 h
same,half-life at 3 μM,[13],> 2 h
same,half-life at 3 μM,[14],> 2 h
same,half-life at 3 μM,[15],> 2 h
same,rescue of ceftibuten activity,[16]; ceftibuten 300 mg q8h human-simulated regimen with Compound 2 q8h,rescued ceftibuten activity in all 21 beta-lactamase-expressing strains
same,Compound 2 median exposure at which net bacterial stasis was achieved,"[16]; ceftibuten 300 mg q8h human-simulated regimen, interquartile range 3.06-18.56",8.98 mg·h/L
